Tested on: patient with primary biliary cirrhosis (stage IV in Scheuer classification)
Test: Clinical effect of oral L-alanine in a patient with terminal-stage primary biliary cirrhosis
Type: in vivo, human
Method: The clinical effect of L-alanine was examined in a patient with primary biliary cirrhosis. The patient was suffering from primary biliary cirrhosis in the terminal stages (stage IV in Scheuer classification). After their symptoms had appeared, 600 mg/day of ursodeoxycholic acid was orally administered as a therapeutic agent everyday. However, this treatment became ineffective and the results of biochemical tests also became worse. Under these conditions, 18 g/day of L-alanine was orally administered to the patient in three doses every day for two months. Before and after the administration of L-alanine, two weeks in total of the observation period was taken, and then eight weeks of the administration period was taken. The blood specimen was taken once a week to determine total serum bilirubin and transaminase (AST). By the administration of L-alanine, total serum bilirubin and transaminase were reduced. […] As the administration was finished, increase of both total serum bilirubin and transaminase was observed.

[1] = observation period after end of 18 g/day oral administration
[2] = patient, 18 g/day orally in three doses, eight weeks administration, weekly blood specimen

C[C@H](N)C(=O)O [L-alanine]
time of maximum effect after the start of the administration (18 g/day orally, effect on total serum bilirubin and transaminase, lasted in the course of the administration): two | therapeutic effect on the terminal case of primary biliary cirrhosis (symptoms) (L-alanine 18 g/day orally, ursodeoxycholic acid 600 mg/day orally): excellent therapeutic effect | total serum bilirubin after the administration was finished [1]: increase | transaminase after the administration was finished [1]: increase | total serum bilirubin [2]: reduced | transaminase (AST) [2]: reduced
